Reference: ChEMBL document CHEMBL4007478, “Diarylpentadienone derivatives (curcumin analogues): Synthesis and anti-inflammatory activity” (Bioorg Med Chem Lett, 2017)
≈ marks a conversion by molar mass, not a printed value. Each block holds one compound with its values, some of them ahead of it. Calls of active or inactive are those of the source. The calls are words filed in the database; no cut-off is given here.

Legend:
[1] = Aqueous solubility of the compound in water at 1 mg exposed to ultrasound for 1 hr measured after 30 mins by UV-spectrophotometric method; type: physicochemical; conditions: for solubility at 1 h: water
[2] = biological target: Transcription factor p65 (Mus musculus) (UniProt Q04207); experiment: Inhibition of LPS-induced NF-kB p65 phosphorylation in mouse RAW264.7 cells at 0.3 ug/ml preincubated for 12 hrs followed by LPS stimulation for 3 hrs by Western blot method; type: cell-based
[3] = biological target: Transcription factor p65 (Mus musculus) (UniProt Q04207); experiment: Inhibition of NF-kB p65 in mouse RAW264.7 cells assessed as reduction in LPS-induced COX2 expression at 0.3 ug/ml preincubated for 12 hrs followed by LPS stimulation for 3 hrs by Western blot method; type: cell-based
[4] = biological target: Transcription factor p65 (Mus musculus) (UniProt Q04207); experiment: Inhibition of LPS-induced NF-kB p65 activation in mouse RAW264.7 cells at 0.3 ug/ml preincubated for 12 hrs followed by LPS stimulation for 3 hrs by DAPI staining based inverted fluorescence microscopic method; type: cell-based
[5] = biological target: Transcription factor p65 (Mus musculus) (UniProt Q04207); experiment: Inhibition of NF-kB p65 in mouse RAW264.7 cells assessed as reduction in LPS-induced iNOS expression at 0.3 ug/ml preincubated for 12 hrs followed by LPS stimulation for 3 hrs by Western blot method; type: cell-based
[6] = tested on: RAW264.7; experiment: Anti-inflammatory activity in mouse RAW264.7 cells assessed as inhibition of LPS-induced TNFalpha production at 20 uM by ELISA; type: functional
[7] = tested on: RAW264.7; experiment: Anti-inflammatory activity in mouse RAW264.7 cells assessed as inhibition of LPS-induced IL-6 production at 20 uM by ELISA; type: functional

Chain of Transcription factor p65 (Mus musculus) (Q04207 whole entry): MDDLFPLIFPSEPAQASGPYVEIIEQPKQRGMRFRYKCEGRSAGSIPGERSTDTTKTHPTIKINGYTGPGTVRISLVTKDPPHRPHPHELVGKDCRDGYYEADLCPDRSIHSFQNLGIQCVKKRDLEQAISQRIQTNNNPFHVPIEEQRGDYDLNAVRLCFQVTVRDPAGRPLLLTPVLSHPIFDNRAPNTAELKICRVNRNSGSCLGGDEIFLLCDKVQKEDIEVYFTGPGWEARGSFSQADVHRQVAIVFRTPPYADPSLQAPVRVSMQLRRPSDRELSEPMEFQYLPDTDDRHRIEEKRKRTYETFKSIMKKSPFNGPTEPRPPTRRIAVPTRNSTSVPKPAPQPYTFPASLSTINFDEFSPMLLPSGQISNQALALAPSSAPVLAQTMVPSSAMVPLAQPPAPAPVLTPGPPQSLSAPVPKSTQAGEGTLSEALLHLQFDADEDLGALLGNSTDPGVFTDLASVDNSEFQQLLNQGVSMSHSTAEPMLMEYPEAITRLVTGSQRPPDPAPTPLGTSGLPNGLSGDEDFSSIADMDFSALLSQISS

SMILES: O=C(/C=C/C=C/c1ccccc1)c1ccc(F)cc1F
solubility at 1 h [1]: 7.86 µg/mL (≈ 29.1 µM)

SMILES: O=C(/C=C/C=C/c1ccccc1)c1ccc([N+](=O)[O-])cc1
solubility at 1 h [1]: 13.2 µg/mL (≈ 47.3 µM)

SMILES: O=C(/C=C/C=C/c1ccccc1)c1ccccc1Cl
solubility at 1 h [1]: 8.2 µg/mL (≈ 30.5 µM)

SMILES: COc1ccccc1/C=C/C=C/C(=O)c1ccc([N+](=O)[O-])cc1
solubility at 1 h [1]: 13.9 µg/mL (≈ 45.1 µM)

SMILES: COc1cc(C(=O)/C=C/C=C/c2ccccc2)cc(OC)c1OC
solubility at 1 h [1]: 20.3 µg/mL (≈ 62.7 µM)
inhibition [6]: Active
inhibition [7]: Active

Second part, led by results:

inhibition [2]: Active
inhibition [3]: Active
inhibition [4]: Active
inhibition [5]: Active
SMILES: Cc1ccc(S(=O)(=O)/C=C/C#N)cc1

solubility at 1 h [1]: 7.55 µg/mL (≈ 24.2 µM)
SMILES: CN(C)c1ccc(/C=C/C=C/C(=O)c2ccccc2Cl)cc1

solubility at 1 h [1]: 6.78 µg/mL (≈ 24.5 µM)
SMILES: CC(C)c1ccc(C(=O)/C=C/C=C/c2ccccc2)cc1

solubility at 1 h [1]: 25.9 µg/mL (≈ 73.1 µM)
SMILES: COc1ccccc1/C=C/C=C/C(=O)c1cc(OC)c(OC)c(OC)c1
inhibition [6]: Active
inhibition [7]: Active

solubility ([1]; 1 h): 12.87 µg/mL (≈ 34.9 µM)
SMILES: COc1cc(/C=C/C(=O)CC(=O)/C=C/c2ccc(O)c(OC)c2)ccc1O [CURCUMIN]
inhibition [6]: Active
inhibition [7]: Active

solubility at 1 h [1]: 9.45 µg/mL (≈ 31.6 µM)
SMILES: COc1ccccc1/C=C/C=C/C(=O)c1ccccc1Cl
